# Experiments:
# Type in all cases: cell-based, human
# phospho-ERK = assay: serum-stimulated phospho-ERK, kinetic study
# Procedure: Unless otherwise indicated, cells were lysed 48 hours after being treated with lysis buffer, as described in Haklai, et al., supra. […] Protein bands were visualized by ECL and quantified by densitometry with Image Master VDS-CL (Amersham) using TINA 2.0 software (Ray Tests). To obtain reliable comparisons between replicated experiments for statistical analysis, a standardization procedure was used, in which the density of each given protein band as recorded with its specific Ab, was normalized. […] The standard average density was defined as 1.0, and each of the individually determined bands was related to this value. […] Actin cytoskeletal elements were labeled with rhodamine-phalloidin, and digital fluorescence images were collected on a Zeiss LSM 510 confocal microscope fitted with fluorescein and rhodamine filters, as described in Gana-Weisz, M., et al., supra.
# First, the time courses of serum-stimulated GTP loading of Ras and serum-stimulated activation of signals downstream of Ras were determined. […]
# [1] = test system: NF-1 cell lines T265P21, ST88-14, and 90-8; assay: actin stress fibers, rhodamine-phalloidin confocal microscopy; conditions: T265P21, ST88-14, and 90-8, 75 μM FTS; controls 82%-87%
# Procedure: (§1) The human NF-1 MPNST cell lines ST88-14, T265P21 and 90-8 and the non-NF-1 human MPNST cell line STS26T were obtained from Dr. Nancy Ratner. T265P21, 90-8, and ST88-14 cells were maintained in RPMI/15% fetal calf serum (FCS) medium and STS26T cells were maintained in DMEM/10% FCS, as described in Weisz, B., et al., supra. Cells were plated at a density of 1×10^6 cells per 10-cm plate for biochemical and immunoblotting assays, 2.5×10^3 cells/well in 24-well plates for cell-growth assays, or on glass cover slips (5×10^4 cells per 35-mm dish) for labeling of actin cytoskeletal elements. […]
# (§2) Unless otherwise indicated, cells were lysed 48 hours after being treated with lysis buffer, as described in Haklai, et al., supra. […] Protein bands were visualized by ECL and quantified by densitometry with Image Master VDS-CL (Amersham) using TINA 2.0 software (Ray Tests). To obtain reliable comparisons between replicated experiments for statistical analysis, a standardization procedure was used, in which the density of each given protein band as recorded with its specific Ab, was normalized. […] The standard average density was defined as 1.0, and each of the individually determined bands was related to this value. […]
# non-NF-1 STS26T cells = assay: as above; conditions: 75 μM FTS, mean±SD, n=3, P<0.05
# Procedure: as §1, §2
# p120 RasGAP = p120 RasGAP amounts, immunoblot; conditions: 75 μM FTS, 48 hours, NF-1 and non-NF-1 cells
# Procedure: Unless otherwise indicated, cells were lysed 48 hours after being treated with lysis buffer, as described in Haklai, et al., supra. […] Protein bands were visualized by ECL and quantified by densitometry with Image Master VDS-CL (Amersham) using TINA 2.0 software (Ray Tests). To obtain reliable comparisons between replicated experiments for statistical analysis, a standardization procedure was used, in which the density of each given protein band as recorded with its specific Ab, was normalized. […] The standard average density was defined as 1.0, and each of the individually determined bands was related to this value. […] Actin cytoskeletal elements were labeled with rhodamine-phalloidin, and digital fluorescence images were collected on a Zeiss LSM 510 confocal microscope fitted with fluorescein and rhodamine filters, as described in Gana-Weisz, M., et al., supra. […]
structure (smiles),measurement,setting,value
"CC(C)=CCC/C(C)=C/CC/C(C)=C/CSc1ccccc1C(=O)O [FTS, S-farnesylthiosalicylic acid]",serum-stimulated increase in phospho-ERK,"phospho-ERK; STS26T cells, serum-starved 24 hours, stimulated with 10% serum",inhibited
same,serum-stimulated increase in phosphor-ERK,"phospho-ERK; all NF-1 cell lines (T265P21, ST88-14, 90-8)",reduced
same,"cells with stress fibers after FTS, relative to total cell number",[1],11%-20%
same,increase in stress-fiber formation,non-NF-1 STS26T cells,27%±11.9%
same,amounts of p120 RasGAP,p120 RasGAP,no effect

# — patent US20110046223A1, “TREATMENT OF NEUROFIBROMATOSIS” (RAMOT AT TEL-AVIV UNIVERSITY LTD., priority 2006, published 2011)
